Data taken from patent US9550782B2, “Compounds and methods for treating diabetes” (Medivation Technologies, Inc., priority 2011, dated 2017).
Values joined by “and” are separate entries in the source; they are usually repeats but may differ in a detail not shown here. Identical values can stand only once. Like-named read-outs stand apart in the source and are kept apart here.

What was measured:
[1] = biological target: T1, rat adrenergic α1B receptor (Rattus norvegicus, UniProt P15823); assay: Radioligand binding, adrenergic α1B ([3H]Prazosin); design: species or system Wistar Rat
T1 construct: rat adrenergic α1B receptor obtained from Wistar Rat liver; from tissue; host or cells: Wistar rat liver
T1 sequence (P15823 1-515): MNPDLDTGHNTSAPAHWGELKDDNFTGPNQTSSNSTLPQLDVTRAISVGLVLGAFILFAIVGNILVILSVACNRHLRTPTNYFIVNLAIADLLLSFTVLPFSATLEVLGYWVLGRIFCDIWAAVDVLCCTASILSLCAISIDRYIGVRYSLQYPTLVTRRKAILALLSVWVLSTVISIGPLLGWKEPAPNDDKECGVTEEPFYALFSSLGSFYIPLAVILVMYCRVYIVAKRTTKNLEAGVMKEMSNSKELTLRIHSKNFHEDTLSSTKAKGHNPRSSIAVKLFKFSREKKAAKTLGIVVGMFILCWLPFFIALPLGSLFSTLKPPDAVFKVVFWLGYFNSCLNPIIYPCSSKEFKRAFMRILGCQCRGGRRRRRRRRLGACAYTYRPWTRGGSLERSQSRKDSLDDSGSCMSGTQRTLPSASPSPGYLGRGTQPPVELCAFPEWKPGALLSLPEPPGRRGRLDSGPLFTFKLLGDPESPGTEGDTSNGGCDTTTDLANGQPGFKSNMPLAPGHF
Method: To evaluate in radioligand binding assays the activity of compounds of the invention, rat adrenergic α1B receptor obtained from Wistar Rat liver (Garcia-S'ainz, J. et al, Biochem. Biophys. Res. Commun. 186:760, 1992; Michel, A. et al, Br. J. Pharmacol. 98:883, 1989) in a modified Tris-HCl buffer (50 mM Tris-HCl buffer, pH 7.4, 0.5 mM EDTA) was used. Compounds of the invention were incubated with 0.25 nM [^3H]Prazosin for 60 min at 25° C. Non-specific binding was estimated in the presence of 10 μM phentolamine. Receptor proteins were filtered and washed, the filters were then counted to determine [^3H]Prazosin specifically bound. […] Compounds of the invention were tested in this biochemical assay and percent inhibition of specific binding was determined. Biochemical assay results are presented as the percent inhibition of specific binding in Table B1.

[2] = biological target: T2, human recombinant adrenergic α2A receptor (Homo sapiens, UniProt P08913); assay: Radioligand binding, adrenergic α2A ([3H]MK-912); conditions: [3H]MK-912
T2 construct: expressed in transfected cells; host or cells: insect Sf9 cells
T2 sequence (P08913 1-465): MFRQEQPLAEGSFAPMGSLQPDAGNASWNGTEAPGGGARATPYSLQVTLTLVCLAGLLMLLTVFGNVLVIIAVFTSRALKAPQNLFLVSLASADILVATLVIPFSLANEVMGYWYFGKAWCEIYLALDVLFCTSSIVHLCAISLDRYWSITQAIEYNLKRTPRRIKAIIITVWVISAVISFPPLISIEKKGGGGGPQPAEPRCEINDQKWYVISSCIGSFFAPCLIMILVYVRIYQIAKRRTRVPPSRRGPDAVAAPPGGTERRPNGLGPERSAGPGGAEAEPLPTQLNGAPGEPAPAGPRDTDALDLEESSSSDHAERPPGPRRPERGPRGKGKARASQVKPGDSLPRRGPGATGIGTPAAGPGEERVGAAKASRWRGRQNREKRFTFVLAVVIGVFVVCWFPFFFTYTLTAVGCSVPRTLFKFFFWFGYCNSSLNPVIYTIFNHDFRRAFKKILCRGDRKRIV
Method: To evaluate in radioligand binding assays the activity of compounds of the invention, human recombinant adrenergic α2A receptor expressed in insect Sf9 cells (Uhlen, S. et al, J. Pharmacol. Exp. Ther. 271:1558, 1994) in a modified Tris-HCl buffer (50 mM Tris-HCl, pH 7.4, 12.5 mM MgCl2, 2 mM EDTA) was used. Compounds of invention were incubated with 1 nM [^3H]MK-912 for 60 min at 25° C. MK912 is (2S-trans)-1,3,4,5′,6,6′,7,12b-octahydro-1′,3′-dimethyl-spiro[2H-benzofuro[2,3-a]quinolizine-2,4′(1′H)-pyrimidin]-2′(3′H)-one hydrochloride. Non-specific binding was estimated in the presence of 10 μM WB-4101 (2-(2,6-Dimethoxyphenoxyethyl)aminomethyl-1,4-benzodioxane hydrochloride). Receptor proteins were filtered and washed, the filters were then counted to determine [^3H]MK-912 specifically bound. […] Compounds of the invention were tested in this biochemical assay and percent inhibition of specific binding was determined. Biochemical assay results are presented as the percent inhibition of specific binding in Table B1.

[3] = biological target: T3, human recombinant adrenergic α2B receptor (Homo sapiens, UniProt P18089); assay: Radioligand binding, adrenergic α2B ([3H]Rauwolscine); conditions: read-out: Percentage inhibition of ligand binding, Adrenergic α2B (0.03 μM), compound at 0.03 μM, repeat datapoints each shown
T3 construct: expressed in transfected cells; host or cells: CHO-K1
T3 sequence (P18089 1-450): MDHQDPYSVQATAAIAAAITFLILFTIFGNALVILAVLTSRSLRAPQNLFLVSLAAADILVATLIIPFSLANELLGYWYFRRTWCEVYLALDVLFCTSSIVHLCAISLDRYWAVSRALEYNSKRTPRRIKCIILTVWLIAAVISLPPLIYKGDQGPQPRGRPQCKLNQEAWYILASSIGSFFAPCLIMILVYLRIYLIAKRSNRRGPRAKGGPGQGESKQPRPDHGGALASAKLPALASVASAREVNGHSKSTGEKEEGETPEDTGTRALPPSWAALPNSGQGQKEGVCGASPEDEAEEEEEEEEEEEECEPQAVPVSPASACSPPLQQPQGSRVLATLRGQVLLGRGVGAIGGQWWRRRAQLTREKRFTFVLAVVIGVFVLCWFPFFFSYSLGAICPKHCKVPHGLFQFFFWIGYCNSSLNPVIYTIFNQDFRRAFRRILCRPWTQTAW
Method: To evaluate in radioligand binding assays the activity of compounds of the invention, human recombinant adrenergic α2B receptor expressed in Chinese hamster ovary (CHO) K1 cells (Uhlen, S. et al, Eur. J. Pharmacol. 343(1):93, 1998) in a modified Tris-HCl buffer (50 mM Tris-HCl, pH 7.4, 12.5 mM MgCl2, 1 mM EDTA, 0.2% BSA) was used. Compounds of the invention were incubated with 2.5 nM [3H]Rauwolscine for 60 min at 25° C. Non-specific binding was estimated in the presence of 10 μM Prazosin. Receptor proteins were filtered and washed, the filters were then counted to determine [3H]Rauwolscine specifically bound. […] Compounds of the invention were tested in this biochemical assay and percent inhibition of specific binding was determined. Biochemical assay results are presented as the percent inhibition of specific binding in Table B1.

[4] = read-out: Percentage inhibition of ligand binding, Adrenergic α1B (0.1 μM), compound at 0.1 μM, repeat datapoints each shown
[5] = 0.1 μM compound, read-out: Percentage inhibition of ligand binding, Adrenergic α2A
[6] = compound at 0.1 μM, repeat datapoints each shown, 0.1 µM
[7] = read-out: Percentage inhibition of ligand binding, Adrenergic α2A (0.1 μM), compound at 0.1 μM, repeat datapoints each shown

Cc1ccc2c(c1)c1c(n2CC(O)c2ccncc2)CCN2CCCC12 (single isomer, unassigned) [129b]
Percentage inhibition of ligand binding, Adrenergic α1B ([1]; 0.1 μM compound, 0.1 µM): 69%
Percentage inhibition of ligand binding, Adrenergic α2A ([2]; 0.1 μM compound, 0.1 µM): 55%

Cc1ccc2c(c1)c1c(n2CC(O)c2ccncc2)CN(C)CC1 (centres unmarked) [compound 8]
inhibition at 0.03 µM [3]: 61%

Cc1ccc2c(c1)c1c(n2CC(N=[N+]=[N-])c2ccncc2)CCN(C)C1 (racemic) [V-1, 5-(2-azido-2-(pyridin-4-yl)ethyl)-2,3,4,5-tetrahydro-2,8-dimethyl-1H-pyrido[4,3-b]indole]
inhibition at 0.1 µM [1, 4]: 15%

Cc1ccc2c(c1)c1c(n2CC(c2ccncc2)N2CCCC2)CCN(C)C1 (single isomer, unassigned) [152a]
Percentage inhibition of ligand binding, Adrenergic α2A ([2]; 0.1 μM compound): 17%

C/C(=C\n1c2c(c3cc(C)ccc31)C1CCCN1CC2)c1ccc(C)nc1 (centres unmarked) [193a, 10-methyl-7-(2-(6-methylpyridin-3-yl)prop-1-enyl)-2,3,5,6,7,11c-hexahydro-1H-indolizino[7,8-b]indole]
inhibition at 0.1 µM ([1]; 0.1 μM compound, read-out: Percentage inhibition of ligand binding, Adrenergic α1B): 89%
inhibition at 0.1 µM [2, 5]: 85%

Cc1ccc2c(c1)c1c(n2CC(c2ccncc2)N(C)C)CCN(C)C1 (single isomer, unassigned) [150b]
Percentage inhibition of ligand binding, Adrenergic α1B ([1]; 0.1 μM compound, 0.1 µM): 7%
Percentage inhibition of ligand binding, Adrenergic α2A ([2]; 0.1 μM compound, 0.1 µM): 5%

OCCN1CCc2c(c3cc(Cl)ccc3n2CC(O)c2ccncc2)C1 (single isomer, unassigned) [II-93b]
Percentage inhibition of ligand binding, Adrenergic α2A ([2]; compound at 0.1 μM, 0.1 µM): 4%

Cc1ccc2c(c1)c1c(n2CC(c2ccncc2)N2CCCC2)CCN(C)C1 (single isomer, unassigned) [152b]
Percentage inhibition of ligand binding, Adrenergic α1B ([1]; 0.1 μM compound): 7%

CN1CCc2c(n(CC(O)c3ccc(F)c(F)c3)c3ccc(Cl)cc23)CC1 (single isomer, unassigned) [339b]
Percentage inhibition of ligand binding, Adrenergic α2A ([2]; compound at 0.1 μM, 0.1 µM): 64%

Cc1ccc2c(c1)c1c(n2CC(O)c2ccncc2)CCN2CCCC12 (single isomer, unassigned) [129c]
inhibition at 0.03 µM ([2]; 0.03 μM compound, read-out: Percentage inhibition of ligand binding, Adrenergic α2A): 14%
inhibition at 0.1 µM [2, 5]: 29%

Cc1ccc2c(c1)c1c(n2CC(O)c2cn[nH]c2)CCN(C)C1 (centres unmarked) [II-106a]
Percentage inhibition of ligand binding, Adrenergic α1B ([1]; compound at 0.1 μM): 25%

CN1CCc2c(n(CC(O)c3ccc(F)c(F)c3)c3ccc(Cl)cc23)CC1 (single isomer, unassigned) [339a]
Percentage inhibition of ligand binding, Adrenergic α1B ([1]; compound at 0.1 μM): 13%
Percentage inhibition of ligand binding, Adrenergic α2A ([2]; compound at 0.1 μM, 0.1 µM): 37%

CC(O)(Cn1c2c(c3cc(Cl)ccc31)CN(C1CCC1)CC2)c1cccnc1 (single isomer, unassigned) [II-118a]
Percentage inhibition of ligand binding, Adrenergic α2A (0.1 μM) [2, 6]: 3%

Cc1ccc2c(c1)c1c(n2CC(O)c2ccncc2)CCN2CCCC12 (single isomer, unassigned) [129a]
Percentage inhibition of ligand binding, Adrenergic α1B ([1]; 0.1 μM compound, 0.1 µM): 73%
Percentage inhibition of ligand binding, Adrenergic α2A ([2]; 0.1 μM compound, 0.1 µM): 46%

Cc1ccc2c(c1)c1c(n2CC(C)(O)c2cccnc2)C(O)CN(C)C1 (single isomer, unassigned) [II-151a]
Percentage inhibition of ligand binding, Adrenergic α1B (0.1 μM) [1, 6]: 11%

Cc1ccc2c(c1)c1c(n2CC(OC(=O)C(C)(C)C)c2ccncc2)CCN(C)C1 (single isomer, unassigned) [130b]
Percentage inhibition of ligand binding, Adrenergic α1B ([1]; 0.03 μM compound, 0.03 µM): 2%
Percentage inhibition of ligand binding, Adrenergic α1B ([1]; 0.1 μM compound, 0.1 µM): 8% and 11%
Percentage inhibition of ligand binding, Adrenergic α2A ([2]; 0.03 μM compound, 0.03 µM): 13%
Percentage inhibition of ligand binding, Adrenergic α2A ([2]; 0.1 μM compound, 0.1 µM): 31%

Cc1ccc2c(c1)c1c(n2CC(O)c2ccc(C#N)cc2)CCN(C)C1 (centres unmarked) [142b]
Percentage inhibition of ligand binding, Adrenergic α2A ([2]; 0.1 μM compound): 63%

Cc1ccc2c(c1)c1c(n2CC(O)c2ccc(F)cc2)CCN(C)C1 (centres unmarked) [compound 30]
inhibition at 0.1 µM [1, 4]: 86%
inhibition at 0.1 µM [2, 7]: 63%

Cc1ccc2c(c1)c1c(n2CC(O)c2ccc(F)cc2)CCN(C)C1 (centres unmarked) [30a]
Percentage inhibition of ligand binding, Adrenergic α1B (0.1 μM) [1, 6]: 57%

Cc1ccc2c(c1)c1c(n2CC(N)c2ccncc2)CC2CCC1N2C (single isomer, unassigned) [155a]
Percentage inhibition of ligand binding, Adrenergic α2A ([2]; 0.1 μM compound, 0.1 µM): −1%

CN1CCc2c(c3cc(Cl)ccc3n2CC(O)c2cccnc2)C1 (centres unmarked) [compound 7]
inhibition at 0.1 µM [2, 7]: 16%

CCC(O)(Cn1c2c(c3cc(C)ccc31)CN(C)CC2)c1ccc(F)cc1 (single isomer, unassigned) [34a]
Percentage inhibition of ligand binding, Adrenergic α1B (0.1 μM) [1, 6]: 11%
Percentage inhibition of ligand binding, Adrenergic α2A (0.1 μM) [2, 6]: 29%

CC(O)(Cn1c2c(c3cc(Cl)cnc31)C1CCCN1CC2)c1cccnc1 (single isomer, unassigned) [IV-210a]
Percentage inhibition of ligand binding, Adrenergic α1B (0.03 μM) ([1]; compound at 0.03 μM, repeat datapoints each shown): 43%

CN1CCc2c(c3cc(Cl)ccc3n2CC(C)(O)c2ccc(C(F)(F)F)nc2)C1 (single isomer, unassigned) [143a]
Percentage inhibition of ligand binding, Adrenergic α1B ([1]; 0.1 μM compound, 0.1 µM): 43%

Cc1ccc2c(c1)c1c(n2C(C)C(O)c2ccncc2)CCN(C)C1 (centres unmarked) [II-98a]
Percentage inhibition of ligand binding, Adrenergic α1B ([1]; compound at 0.1 μM): 33%
Percentage inhibition of ligand binding, Adrenergic α2A ([2]; compound at 0.1 μM): 12%

Cc1cnc2c(c1)c1c(n2CCc2ccc(C)nc2)CCN2CCCC12 (centres unmarked) [compound 74, 10-methyl-7-(2-(6-methylpyridin-3-yl)ethyl)-2,3,5,6,7,1c-hexahydro-1H-pyrido[3′,2′:4,5]pyrrolo[2,3-g]indolizine]
inhibition at 0.1 µM [1, 4]: 81%
